One assay deals with HPK1 (Homo sapiens, UniProt Q92918). As to the kind of experiment: HPK1 kinase activity inhibition test (ADP-Glo, luminescence). The format is biochemical. The settings on record: 2 μM ATP, 5 nM HPK1, read-out: IC50, inhibitory effects on HPK1 kinase activity. The gist of the method:
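Autophosphorylation assay without added substrate: HPK1 preincubated with compound 10 min at 25 °C, then ATP added for 60 min at 25 °C; final DMSO 0.5%. ADP measured by ADP-Glo luminescence; IC50 from four-parameter nonlinear fit.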

For the next assay, the system named is Human Jurkat-E6-1 cells. As to the kind of experiment: Detection of IL-2 production by Jurkat cells using ELISA. The format is cell-based. The settings on record: anti-CD3/anti-CD28 stimulation 24 hours, read-out: Percentage of the amount of IL-2 secreted by compound treated vs DMSO-treated cells. The method in brief:
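Jurkat E6-1 cells were pre-incubated with compound for 30 min at 37 °C, then stimulated 24 h on plate-bound anti-CD3 plus soluble anti-CD28. Secreted IL-2 in supernatant was measured by sandwich ELISA (450 nm) against a standard curve and expressed as % of DMSO-treated cells.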

The subject of a further assay is MV-4-11 cells. In words: Detection of MV-4-11 cell activity (CellTiter-Glo). The format is cell-based. The settings on record: Homo sapiens, MV4-11, 120 h, 5 days, CTG, read-out: IC50, inhibitory effects on MV-4-11 cell activity. The procedure:
The CellTiter-Glo (CTG) luminescence method was used to detect the effect of compounds on the activity of MV-4-11 cells.
Tested compounds: compound prepared in the Examples of the present invention.
Add 100 μL containing 20,000 MV-4-11 (human myeloid monocytic leukemia cells, from the Cell Bank of the Chinese Academy of Sciences, Cat. No. SCSP-5031) cell suspension to 96-well flat-bottom clear-bottomed cell plates (Corning, Cat #3603), and then add 100 μL of cell culture medium containing a series of concentrations of the compound to be tested, with a total volume of 200 μL per well. The final gradient concentrations of the compounds were 500 nM, 125 nM, 31.25 nM, 7.813 nM, 1.953 nM, 0.488 nM, 0.122 nM, 0.031 nM, and 0.008 nM, and the final DMSO content was 0.5%. Set cells with the cell culture medium containing 0.5% DMSO but without compounds as the 100% control; set the culture medium wells without cells as 0% background control. Incubate the cell plate in a humidified incubator at 37° C. and 5% CO2 for 5 days. After 5 days, take out the cell plate, centrifuge (1000 rpm) for 5 minutes, remove and discard 100 μL supernatant, add 100 μL CTG reagent (Promega, Cat #G7572) to each well, shake at room temperature for 10 minutes to promote cell lysis, and incubate at room temperature for 30 minutes to stabilize the luminescence signal. Use a microplate reader (Molecular Device, i3X) to read the Luminescent fluorescence value, use GraphPad Prism 5.0 software to analyze the original data, use nonlinear S-curve regression to fit the data to obtain the dose-effect curve (cell survival rate %), and calculate the IC50 value.

A further assay has as its target KDR (Homo sapiens, UniProt P35968). As to the kind of experiment: KDR kinase activity inhibition test (HTRF). The format is biochemical. The settings on record: read-out: IC50, inhibitory effects on KDR kinase activity. As for the experimental part: (§1) Tested compounds: compounds prepared in the Examples of this invention.
(§2) Prepare compound stock solution: dissolve the test compound in 100% DMSO to make a 10 mM stock solution. Dilute the stock solution of the test compound by 5 times with 100% DMSO, make a 4-fold equal dilution in a 96-well dilution plate, add 1 μL of the compound to 39 μL of kinase reaction buffer (1×kinase buffer, 5 mM MgCl2, 1 mM DTT), and shake on a microplate shaker for 20 minutes. 4×Positive control (4 μL of positive compound solution of the starting concentration, add 196 μL of kinase buffer) and 4×negative control (4 μL of 100% DMSO, add 196 μL of kinase buffer).
(1) Use 1×kinase reaction buffer to prepare 2.5×KDR kinase solution (250 μM), transfer 2 μL of the kinase solution to the 384 reaction plate, and add 1 μL of the test compound solution of gradient concentration to the 384 reaction plate (Greiner, Cat #784075), centrifuge for 1 minute (1000 rpm), and incubate at 25° C. for 10 minutes.
(§3) (2) Use 1×kinase reaction buffer to prepare 2.5×TK-substrate-biotin (2.5 μM) and 2.5×ATP (2.5 μM), mix well, and add 2 μL of the TK-substrate-biotin/ATP solution to the 384 reaction plate, centrifuge for 30 seconds (1000 rpm), and incubate at 25° C. for 40 minutes.
(§4) (3) Use HTRF detection buffer to prepare 2×Sa-XL 665 (125 nM) and 1×TK-antibody-Cryptate. Add 5 μL of a mixture of Sa-XL 665 and TK-antibody-Cryptate solutions to each well, centrifuge for 30 seconds (1000 rpm), and react at room temperature for 1 hour.
(§5) (4) The fluorescence signal is read using a Biotek multi-function plate reader, and the IC50 (half inhibitory concentration) of the compound is obtained using a four-coefficient nonlinear fitting formula.

The target in another assay is T1, FLT3 (Homo sapiens, UniProt P36888).
T1 sequence (P36888 27-993): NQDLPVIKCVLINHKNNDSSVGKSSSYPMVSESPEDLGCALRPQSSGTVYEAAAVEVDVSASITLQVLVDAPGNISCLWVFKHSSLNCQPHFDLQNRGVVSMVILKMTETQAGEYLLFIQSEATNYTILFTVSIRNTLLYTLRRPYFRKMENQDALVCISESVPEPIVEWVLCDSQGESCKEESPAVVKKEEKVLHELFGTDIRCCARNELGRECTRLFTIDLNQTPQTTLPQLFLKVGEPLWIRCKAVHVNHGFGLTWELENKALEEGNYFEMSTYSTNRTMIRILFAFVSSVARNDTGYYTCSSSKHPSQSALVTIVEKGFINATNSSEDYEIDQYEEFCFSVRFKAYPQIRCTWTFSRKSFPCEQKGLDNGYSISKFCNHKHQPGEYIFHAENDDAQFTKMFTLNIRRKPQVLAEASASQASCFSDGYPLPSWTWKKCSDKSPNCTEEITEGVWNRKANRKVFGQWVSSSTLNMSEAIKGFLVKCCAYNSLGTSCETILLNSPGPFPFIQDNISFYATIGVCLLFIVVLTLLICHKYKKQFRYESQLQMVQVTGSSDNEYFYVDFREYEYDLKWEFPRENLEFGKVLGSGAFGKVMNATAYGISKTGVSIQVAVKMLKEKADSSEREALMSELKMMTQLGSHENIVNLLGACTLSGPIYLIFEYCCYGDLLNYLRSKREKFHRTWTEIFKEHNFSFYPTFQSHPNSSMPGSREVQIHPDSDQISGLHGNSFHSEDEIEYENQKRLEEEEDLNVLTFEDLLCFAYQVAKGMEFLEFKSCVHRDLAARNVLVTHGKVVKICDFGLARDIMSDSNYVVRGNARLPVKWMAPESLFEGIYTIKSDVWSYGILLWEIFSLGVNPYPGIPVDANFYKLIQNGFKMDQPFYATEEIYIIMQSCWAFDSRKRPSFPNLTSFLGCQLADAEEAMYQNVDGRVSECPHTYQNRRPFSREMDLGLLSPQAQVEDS
As to the kind of experiment: FLT3 kinase activity inhibition test (HTRF). The settings on record: read-out: IC50, inhibitory effects on FLT3 kinase activity. The format is biochemical. As for the experimental part: as §1, §2
(1) Use 1×kinase reaction buffer to prepare 2.5×FLT3 kinase solution (160 μM), transfer 2 μL of the kinase solution to the 384 reaction plate, and add 1 μL of the test compound solution of gradient concentration to the 384 reaction plate (Greiner, Cat #784075), centrifuge for 1 minute (1000 rpm), and incubate at 25° C. for 10 minutes.
as §3, §4, §5

Chain of HPK1 (Q92918 whole entry): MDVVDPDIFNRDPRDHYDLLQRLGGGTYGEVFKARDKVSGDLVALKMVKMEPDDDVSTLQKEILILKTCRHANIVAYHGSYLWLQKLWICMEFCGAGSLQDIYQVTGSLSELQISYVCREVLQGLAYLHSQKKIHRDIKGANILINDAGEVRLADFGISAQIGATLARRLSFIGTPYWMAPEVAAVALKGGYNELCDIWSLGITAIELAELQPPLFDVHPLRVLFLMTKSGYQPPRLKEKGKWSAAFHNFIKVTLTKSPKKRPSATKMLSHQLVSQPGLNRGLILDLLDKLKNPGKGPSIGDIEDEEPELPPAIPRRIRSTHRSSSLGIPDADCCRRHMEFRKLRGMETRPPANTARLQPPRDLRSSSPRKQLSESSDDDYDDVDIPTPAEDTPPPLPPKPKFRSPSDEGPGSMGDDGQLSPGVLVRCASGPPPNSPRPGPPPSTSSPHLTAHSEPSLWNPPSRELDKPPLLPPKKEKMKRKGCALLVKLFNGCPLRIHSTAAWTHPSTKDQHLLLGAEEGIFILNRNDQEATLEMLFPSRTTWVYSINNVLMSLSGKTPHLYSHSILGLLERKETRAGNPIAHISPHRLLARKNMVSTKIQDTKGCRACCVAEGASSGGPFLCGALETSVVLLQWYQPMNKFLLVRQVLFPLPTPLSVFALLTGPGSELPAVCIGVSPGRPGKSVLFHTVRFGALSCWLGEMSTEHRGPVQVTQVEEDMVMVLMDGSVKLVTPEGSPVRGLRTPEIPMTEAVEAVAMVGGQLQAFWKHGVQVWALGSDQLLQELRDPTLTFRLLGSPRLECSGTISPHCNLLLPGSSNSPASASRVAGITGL
Chain of KDR (P35968 20-1356): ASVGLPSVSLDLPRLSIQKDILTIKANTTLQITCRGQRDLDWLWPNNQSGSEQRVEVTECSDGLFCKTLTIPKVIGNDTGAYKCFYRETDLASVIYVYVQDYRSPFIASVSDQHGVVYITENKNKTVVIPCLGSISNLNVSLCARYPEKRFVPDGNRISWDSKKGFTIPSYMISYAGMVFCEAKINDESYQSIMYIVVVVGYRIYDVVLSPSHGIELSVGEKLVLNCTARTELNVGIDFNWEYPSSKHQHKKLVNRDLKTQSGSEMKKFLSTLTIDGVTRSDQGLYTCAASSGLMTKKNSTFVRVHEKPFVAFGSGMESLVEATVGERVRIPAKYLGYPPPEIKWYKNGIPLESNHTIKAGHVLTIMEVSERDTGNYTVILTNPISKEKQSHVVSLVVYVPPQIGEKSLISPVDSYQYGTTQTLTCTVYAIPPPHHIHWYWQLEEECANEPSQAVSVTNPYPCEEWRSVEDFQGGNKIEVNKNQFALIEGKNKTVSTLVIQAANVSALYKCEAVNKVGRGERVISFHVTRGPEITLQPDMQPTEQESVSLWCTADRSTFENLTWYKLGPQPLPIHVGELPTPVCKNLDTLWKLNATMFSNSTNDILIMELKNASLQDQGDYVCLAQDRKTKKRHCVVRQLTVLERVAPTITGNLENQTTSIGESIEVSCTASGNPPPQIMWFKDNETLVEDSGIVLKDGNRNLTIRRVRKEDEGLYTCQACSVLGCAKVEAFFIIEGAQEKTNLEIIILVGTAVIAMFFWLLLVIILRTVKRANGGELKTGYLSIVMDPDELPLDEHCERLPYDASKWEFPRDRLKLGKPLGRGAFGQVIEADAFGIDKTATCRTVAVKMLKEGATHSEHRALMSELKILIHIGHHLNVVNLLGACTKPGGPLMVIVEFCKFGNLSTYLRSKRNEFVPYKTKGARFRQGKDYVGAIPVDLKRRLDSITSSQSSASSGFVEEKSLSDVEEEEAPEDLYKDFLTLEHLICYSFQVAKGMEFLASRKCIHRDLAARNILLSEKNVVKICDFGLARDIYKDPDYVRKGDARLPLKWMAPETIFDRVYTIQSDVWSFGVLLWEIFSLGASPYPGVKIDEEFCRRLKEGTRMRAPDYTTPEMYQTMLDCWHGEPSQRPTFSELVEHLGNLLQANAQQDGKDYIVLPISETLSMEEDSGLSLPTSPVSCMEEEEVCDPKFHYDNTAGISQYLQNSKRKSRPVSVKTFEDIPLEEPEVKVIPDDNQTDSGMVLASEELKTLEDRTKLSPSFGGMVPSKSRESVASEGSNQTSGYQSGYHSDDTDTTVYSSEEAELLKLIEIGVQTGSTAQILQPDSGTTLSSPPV

`Fc1cccc2c1-c1cc3c(n[nH]c3cn1)-c1ccc(N3CCOCC3)c(c1)OCCCO2` [Compound 5, 16-fluoro-5-(morpholin-4-yl)-7,11-dioxa-19,22,23-triazapentacyclo[16.5.2.1^2,6.0^12,17.0^21,24]hexacosa-1(23),2(26),3,5,12,14,16,18,20,24-decaene]: the figures for the IC50 at HPK1 and with MV-4-11 cells were 5 to 50 nM and 50 nM, respectively. For the same molecule, in the assay on Human Jurkat-E6-1 cells (tested compound 3.0 μM), the activity at 3 µM was 717%.

As to `CN1CCN(c2ccc3cc2OCCCOCc2cccc(F)c2-c2cc4c-3n[nH]c4cn2)CC1` [Compound 11, 17-fluoro-5-(4-methylpiperazin-1-yl)-7,11-dioxa-20,23,24-triazapentacyclo[17.5.2.1^2,6.0^13,18.0^22,25]heptacosa-1(24),2(27),3,5,13,15,17,19,21,25-decaene], the IC50 on KDR is not above 5 nM; on HPK1, not above 5 nM; with MV-4-11 cells it was 6.1 nM; at FLT3, not above 5 nM.

Regarding `CN1C[C@@H]2C[C@H]1CN2c1ccc2cc1OCCCOCc1cccc(F)c1-c1cc3c-2n[nH]c3cn1` [Compound 151, 17-fluoro-5-[(1S,4S)-5-methyl-2,5-diazabicyclo[2.2.1]heptan-2-yl]-7,11-dioxa-20,23,24-triazapentacyclo[17.5.2.1^2,6.0^13,18.0^22,25]heptacosa-1(24),2,4,6(27),13(18),14,16,19,21,25-decaene], the IC50 on KDR, on HPK1 and on FLT3 was not above 5 nM each time. Further, in the assay with Human Jurkat-E6-1 cells (tested compound 1.0 μM), the activity at 1 µM was 416%.

These data come from patent US20240383911A1, “AZAINDAZOLE MACROCYCLE COMPOUNDS AND USES THEREOF” (BROADENBIO CO., LTD, priority 2021, published 2024).
